Reference: US11504394B2, “Targeted ionophore-based metal delivery” (The Regents of the University of California, priority 2018, dated 2022)

Tests used:
[1] = Log P, shake-flask octanol-water partition; type: physicochemical; details: n-octanol / PBS (pH=7.4), error = standard deviation
Protocol: Log P measurements were performed with The shake-flask method based on compound partitioning between n-octanol and PBS (pH=7.4) layers. Octanol (saturated with PBS) and PBS (saturated with octanol) was obtained by vigorous mixing for one hour followed by layer separation in a separatory funnel over 24 hours. For Gal-Cu(gtsm): 500 μL of standard solutions were made with 100, 50, 20, 10, and 5 μM of Gal-Cu(gtsm) dissolved in PBS-saturated octanol. 50 mM stock solution in DMSO was diluted to 100 μM final concentration with 490/10, 480/20, and 460/40 μL of saturated octanol/PBS. For Cu(gtsm): 500 μL of standard solutions were made with 100, 50, 20, 10, and 5 μM of […]. 50 mM stock solution in DMSO was diluted to 100 μM final concentration with 10/490, […], and 50/450 μL of saturated octanol/PBS. All standards and samples were vortexed vigorously in 1.7 mL microcentrifuge tubes for 60 seconds, then spun down at 12,000 g for 2 mins in a microcentrifuge. 200 μL of each standard and sample were added to a clear 96-well plate, and the blank-subtracted absorbance at 470 nm was read in a Synergy M2 plate reader. All standards and samples were measured in duplicate. Log P values were calculated from the subsequent partition coefficients and averaged across the three partition conditions to obtain the final log P value. […]

ATP7B = test: Western blot of liver lysates, ATP7B; type: in vivo, mouse; details: 6 and 24 hours
Protocol: Frozen mouse livers were minced into 50 mg samples on dry ice and homogenized in ice-cold RIPA buffer (25 mM Tris.HCl pH 7.6, 150 mM NaCl, 1% NP-40, 1% sodium deoxycholate, 0.1% SDS) containing protease inhibitor cocktail with EDTA (Roche) at 100 mg/mL using a hand-held mechanical homogenizer. Homogenates were incubated on ice for 30 min and centrifuged at 12,000×g for 20 min at 4° C. The soluble protein lysates were collected from underneath the upper lipid layer with a pipette and transferred to new tubes. Protein concentration was determined using a detergent-compatible Bradford Assay (Pierce).
Protein lysates were denatured in NuPAGE lithium dodecyl sulfate sample buffer (Invitrogen) containing 10% v/v β-mercaptoethanol as a reducing agent. […] The membranes were washed 5 times for 5 minutes in TBST, then visualized using enhanced chemiluminescence (Western Lighting Plus for visualizing CCS and ATP7B, Perkin Elmer; Western Clarity Max for visualizing CTR1 and MT, Bio-Rad) recorded on a BioRad GelDoc imaging station. β-actin was probed to determine equal loading using anti-β-actin (sc-69879, Santa Cruz Biotechnology) and AlexaFluor 647-conjugated anti-mouse IgG (A31571, Molecular Probes) antibodies at 1:5000 and 1:2500 dilutions, respectively, with visualization using fluorescence recorded on a BioRad GelDoc imaging station.

labile Cu^+ pool = test: In vivo bioluminescence imaging with CCL-1 / D-Luc, liver region; parameters: species or system FVB-luc^+ mice; details: 24 hours after ionophore, 0.75 mg Cu/kg i.p.
Protocol: A Xenogen IVIS Spectrum instrument (Caliper Life Sciences) was used for bioluminescence imaging in all animal experiments, and image analysis was performed using the Living Image software. The total photon flux for each animal was determined by drawing a region of interest around the liver and integrating photon flux over the total imaging period (area under the curve). We selected our liver region of interest based on comparing the bioluminescence data in vivo and ex vivo, as described in our previous studies with the CCL-1 probe.^27 The same region of interest around the liver was applied to analyzing both the CCL-1 and D-Luc data. The data plotted in FIG. 8A represents the ratio of CCL-1 integrated photon flux to basal D-luc integrated photon flux. Mice were anesthetized prior to injection and during imaging via inhalation of isoflurane. Isoflurane was purchased from Phoenix Pharmaceuticals, Inc. DMSO was purchased from Sigma-Aldrich, Dulbecco's phosphate buffered saline was purchased from Gibco, and medical-grade oxygen was purchased from Praxair.
FVB-luc+ mice were given intraperitoneal (i.p.) injections of vehicle (50 μL 1:1 DMSO:DPBS), 3.46 mg/kg Cu(gtsm), or 7.26 mg/kg Gal-Cu(gtsm) under anesthesia with isoflurane. The ionophore concentrations were chosen to give an equivalent copper dose of 0.75 mg Cu/kg mouse at 0.6 mg Cu/mL vehicle. […]

HepG2 cells = test: Confocal imaging with copper sensing CF4 fluorescent probe; type: cell-based; details: HepG2, 100 μM Gal-Cu(gtsm) or 2 μM Cu(gtsm), 3 hours
Protocol: Confocal fluorescence images were acquired with a Zeiss LSM710 laser-scanning microscope with a 20× objective lens. Excitation at 543 nm for CF4 was carried out with appropriate lasers, and emission was acquired from 550 to 650 nm. HepG2 cells were plated between 50-80% confluency in 8-well glass chamber slides with gelatin coating. Cells were incubated with either vehicle, Cu(gtsm), or Gal-Cu(gtsm) for 3 hours in low glucose DMEM. The media was then aspirated and replaced with CF4 or Ctrl-CF4-S2 (2 μM freshly diluted from a 1 mM stock solution) in DPBS with calcium and magnesium, then incubated at 37° C. for 30 minutes. The buffer was then replaced with fresh DPBS (+Ca, +Mg) for imaging. Image analysis and quantification was performed using ImageJ (National Institutes of Health). Mean fluorescence intensity was analyzed with a minimum threshold of 20 pixels and maximum threshold of 255 pixels.

CNC1=N[N+]2=CC=[N+]3N=C(NCCOCCOCCOC4OC(CO)C(O)C(O)C4NC(C)=O)[S][Cu-2]23[S]1 (stereo not shown) [Gal-Cu(gtsm)]
log P [1]: −1.03±0.10
ATP7B expression in liver (ATP7B): increased
bioluminescent CCL-1/D-luc liver signal (labile Cu^+ pool): returns to basal levels
CF4 fluorescence (HepG2 cells): increased fluorescence
